In patent US4434290A, “Pyrido (4,3-B) carbazoles substituted in the 1 position by a polyamine chain” (priority 1978, dated 1984):

Columns and labels:
leukemia L1210 = assay: Leukemia L1210 in vivo, dose/effect relationship (Table XIV); parameters: species or system mice; details: for Death interval / ILS % / Mean survival time: 10^5 cells; for Death interval / ILS % / Mean survival time / Surviving mice: D+1; for Surviving mice: groups of six mice
Description: The properties were determined by the curative action inoculated experimental leukemia L1210. This leukemia was maintained on B6 D2 Fl (C 57 Bl/6×DBA/2) Fl mice in the proportion of 6 or 10 mice per experimental batch. The compounds to be tested were injected by the intraperitoneal route one or several days after inoculation of the cells (1 injection only). The death interval was determined, the first figure of the Table indicating the date of the first mouse death and the second the date of the last mouse death. The mean survival time was also measured (MST). A characteristic value is the percentage of increased life span (ILS %). This value (Cancer. Res. 1971, 31, 1883-1887) is the ratio: [formula] where S^t =survival of treated animals and
S^c =survival of control animals.
The study was carried out on experimental groups of six mice by the previously defined method. 10^5 cells were injected at day Do. […] The death interval was determined, the mean survival time was measured (MST) and the percentage of increased life span was calculated (ILS %) by the above-defined formula.

Friend's virus (VFA) = assay: Anemia inducing Friend's virus, measurement of survival time (Table XVIII); type: in vivo, mice; details: 15 mg/kg; for Death interval / Mean survival time / ILS %: D+1
Description: The following experiments related to the treatment of mice inoculated by the virus of Friend's leukemia.
In these experiments DBA2, male mice, aged from 2 to 3 months, of weight around 20 g, were used.
An anemia inducing strain of Friend's virus (VFA) maintained for several years in the laboratory was used. The viral stock was constituted by an acellular supernatant liquor obtained by the centrifugation of a ground product of leukemic spleens, carried out in an 0.5 M PBS-saccharose solution. The assay of the stock was done in vivo by the method described by JASMIN et al [J. Nat. Cancer Inst. 1974,53, 469-474]. The measurement is expressed in SD50 (50% spleen enlarging dose).
In another series of tests, the mortality of the mice, in which the Friend's virus was injected (VFA) by the intraperitoneal route (dilution 1/800) and the death intervalwere determined, the mean survival time and the percentage of increased life span for the compound 27 according to the invention inoculated on day D+1 at the dose of 15 mg/kg were calculated.

[1] = VFA 1/800, % of leukemias = 99.8
[2] = VFA 1/800, % of leukemias = 100%

CCN(CC)CCCNc1nccc2c(C)c3[nH]c4ccc(OC)cc4c3c(C)c12 [Compound 27]
dose/effect relationship (leukemia L1210; 5-20 mg/kg, day D+1): proportional to the dose inoculated
Death interval (leukemia L1210; 5 mg/kg): 16-24
ILS % (leukemia L1210; 5 mg/kg): 80.4%
Mean survival time (leukemia L1210; 5 mg/kg): 19.3
Death interval (leukemia L1210; 10 mg/kg): 14-21
ILS % (leukemia L1210; 10 mg/kg): 57%
Mean survival time (leukemia L1210; 10 mg/kg): 16.8
Death interval (leukemia L1210; 15 mg/kg): 13-31
ILS % (leukemia L1210; 15 mg/kg): 96.3%
Mean survival time (leukemia L1210; 15 mg/kg): 21
Death interval (leukemia L1210; 20 mg/kg): 15-25
ILS % (leukemia L1210; 20 mg/kg): 75.7%
Mean survival time (leukemia L1210; 20 mg/kg): 18.8
Surviving mice (leukemia L1210; 5 mg/kg): 0 mice
Surviving mice (leukemia L1210; 10 mg/kg): 0 mice
Surviving mice (leukemia L1210; 15 mg/kg): 0 mice
Surviving mice (leukemia L1210; 20 mg/kg): 1 mice
Death interval (Friend's virus (VFA); [1]): 20-64
Mean survival time (Friend's virus (VFA); [1]): 42.2
ILS % (Friend's virus (VFA); VFA 1/800, % of leukemias = 99.8, on the surviving mice): 40%
Survive (Friend's virus (VFA); VFA 1/800, % of leukemias = 99.8, group of 10 mice): 0
Death interval (Friend's virus (VFA); [2]): 48-72
ILS % (Friend's virus (VFA); [2]): 143.85%
Mean survival time (Friend's virus (VFA); [2]): 59.5
